target: T1, His6-PDK1 (aa 52-556) (Homo sapiens, UniProt O15530); experiment: PDK1 kinase assay III (with Tween 20); format: biochemical; details: compound at 10 μM; PDK1 kinase assay III (values without asterisk); read-out: % CTL (residual activity of the enzyme relative to DMSO control)
T1 construct: 15 μL His6-PDK1 (aa 52-556) 3.33 ng/well); host or cells: baculovirus-infected insect cells
T1 sequence (O15530 52-556): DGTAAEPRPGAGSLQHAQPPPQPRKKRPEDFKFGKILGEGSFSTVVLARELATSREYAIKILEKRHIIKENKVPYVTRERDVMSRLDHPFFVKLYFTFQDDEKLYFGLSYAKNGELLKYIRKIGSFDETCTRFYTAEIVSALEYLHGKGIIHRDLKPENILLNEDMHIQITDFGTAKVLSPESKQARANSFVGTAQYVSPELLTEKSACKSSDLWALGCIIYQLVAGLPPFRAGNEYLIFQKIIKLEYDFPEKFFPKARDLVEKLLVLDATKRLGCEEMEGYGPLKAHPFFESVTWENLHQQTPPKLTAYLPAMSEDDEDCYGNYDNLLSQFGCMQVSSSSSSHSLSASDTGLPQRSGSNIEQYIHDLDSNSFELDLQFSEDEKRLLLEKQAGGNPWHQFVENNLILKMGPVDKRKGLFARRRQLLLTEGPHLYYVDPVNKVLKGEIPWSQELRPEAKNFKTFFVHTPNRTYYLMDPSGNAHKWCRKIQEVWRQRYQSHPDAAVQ
Experimental: Purified enzyme may be obtained for example from the University of Dundee, Scotland.
Another PDK1 assay was developed which by comparison with PDK1 assay 1 additionally contains Tween 20:
The final concentration of Tween 20 is 0.005%.
The reaction is started by adding the ATP solution and the mixture is incubated for 90 min at ambient temperature; at the start of the reaction the dishes are shaken gently. The reaction is stopped by the addition of 50 μL/well of 500 mM phosphoric acid (H3PO4) and incubated for about 20 min at ambient temperature. […] The measured data are evaluated using Graphpad Prism software.
The % CTL values indicate the residual activity of the enzyme after the addition of the inhibitory compound in the solvent DMSO in relation to the enzyme activity in the solvent DMSO without the addition of a compound (control). The majority of the values were determined using the PDK1 kinase assay III described hereinbefore. The values marked with an asterisk (* or**) were determined using the PDK1 kinase assay II described hereinbefore (one asterisk→incubation for 24 h; two asterisks→incubation for 5 min)

First: COc1cc(C(=O)NC2CCN(C)CC2)ccc1Nc1ncc2cc(C#CCNC(=O)c3c(C)n(C)n(Cc4ccc(F)c(F)c4)c3=O)ccc2n1
Second: CNC(=O)c1cccc(Nc2ncc3cc(C#CCNC(=O)c4c(C)n(C)n(Cc5ccc(F)c(F)c5)c4=O)ccc3n2)c1
The remaining activity at 10 µM of the first is higher: 61.8% for the first, 19.3% for the second.

Going from `CN(C)Cc1ccc(Nc2ncc3cc(C#CCNC(=O)c4ccnn(Cc5ccc(F)c(F)c5)c4=O)ccc3n2)cc1` to `NCCOc1cc(C#CCNC(=O)c2cncn(Cc3ccc(F)c(F)c3)c2=O)cc2cnc(Nc3ccccc3)nc12`, the remaining activity at 10 µM rises from 13.3% to 13.7%.

First: Cc1c(C(=O)NCC#Cc2cc(OCCN)c3nc(Nc4ccccc4)ncc3c2)c(=O)n(Cc2ccc(F)c(F)c2)n1C
Second: Cc1c(C(=O)NC/C=C/c2cc(OCCN)c3nc(Nc4ccccc4)ncc3c2)c(=O)n(Cc2ccc(F)c(F)c2)n1C
The remaining activity at 10 µM of the first is lower: 9.8% for the first, 19.5% for the second.

First: Cc1c(C(=O)NC/C=C/c2cc(OCCN)c3nc(Nc4ccc(N5CCOCC5)cc4)ncc3c2)c(=O)n(Cc2ccc(F)c(F)c2)n1C
Second: Cc1c(C(=O)NC/C=C/c2cc(OCCCN)c3nc(Nc4ccc(N5CCOCC5)cc4)ncc3c2)c(=O)n(Cc2ccc(F)c(F)c2)n1C
The remaining activity at 10 µM of the first is higher: 13% for the first, 12.5% for the second.

Compared with `NCCOc1cc(C#CCNC(=O)c2cncn(Cc3ccc(F)c(F)c3)c2=O)cc2cnc(Nc3ccc(N4CCOCC4)cc3)nc12`, `NCCOc1cc(/C=C/CNC(=O)c2cncn(Cc3ccc(F)c(F)c3)c2=O)cc2cnc(Nc3ccc(N4CCOCC4)cc3)nc12` is lower in remaining activity at 10 µM: 18.3% for the first, 10.1% for the second.

Going from `Cc1c(C(=O)NCC#Cc2cc(OCCN)c3nc(Nc4ccc(N5CCOCC5)cc4)ncc3c2)c(=O)n(Cc2ccc(F)c(F)c2)n1C` to `Cc1c(C(=O)NCC#Cc2cc(OC3CCNCC3)c3nc(Nc4ccc(N5CCOCC5)cc4)ncc3c2)c(=O)n(Cc2ccc(F)c(F)c2)n1C`, the remaining activity at 10 µM falls from 13.8% to 12.3%.

Going from `O=C(NC/C=C/c1cc(OC2CCNCC2)c2nc(Nc3ccc(N4CCOCC4)cc3)ncc2c1)c1cncn(Cc2ccc(F)c(F)c2)c1=O` to `O=C(NCC#Cc1cc(OC2CCNCC2)c2nc(Nc3ccc(N4CCOCC4)cc3)ncc2c1)c1cncn(Cc2ccc(F)c(F)c2)c1=O`, the remaining activity at 10 µM falls from 12.3% to 9.4%.

First: Cc1c(C(=O)NC/C=C/c2cc(OC3CCNC3)c3nc(Nc4ccc(N5CCOCC5)cc4)ncc3c2)c(=O)n(Cc2ccc(F)c(F)c2)n1C (stereo not drawn)
Second: Cc1c(C(=O)NC/C=C/c2ccc3c(c2)NC(=O)/C3=C\c2ccc[nH]2)c(=O)n(Cc2ccc(F)c(F)c2)n1C [I-16, 2-(3,4-difluorobenzyl)-1,5-dimethyl-3-oxo-N-{(2E)-3-[(3Z)-2-oxo-3-(1H-pyrrol-2-ylmethylidene)-2,3-dihydro-1H-indol-6-yl]prop-2-en-1-yl}-2,3-dihydro-1H-pyrazole-4-carboxamide]
The remaining activity at 10 µM of the first is lower: 10.3% for the first, 15.4% for the second.

Compared with `O=C1Nc2cc(/C=C/CNC(=O)c3cncn(Cc4ccc(F)c(F)c4)c3=O)ccc2/C1=C/c1ccc[nH]1` [I-1, 1-(3,4-difluorobenzyl)-6-oxo-N-{(2E)-3-[(3Z)-2-oxo-3-(1H-pyrrol-2-ylmethylidene)-2,3-dihydro-1H-indol-6-yl]prop-2-en-1-yl}-1,6-dihydropyrimidine-5-carboxamide], `O=C1Nc2cc(/C=C/CNC(=O)c3cncn(Cc4ccc(F)c(F)c4)c3=O)ccc2/C1=C/c1cnc[nH]1` [I-2, 1-(3,4-difluorobenzyl)-N-{(2E)-3-[(3Z)-3-(1H-imidazol-5-ylmethylidene)-2-oxo-2,3-dihydro-1H-indol-6-yl]prop-2-en-1-yl}-6-oxo-1,6-dihydropyrimidine-5-carboxamide] is lower in remaining activity at 10 µM: 18.1% for the first, 12.2% for the second.

Compared with `Cc1nc[nH]c1/C=C1\C(=O)Nc2cc(/C=C/CNC(=O)c3cncn(Cc4ccc(F)c(F)c4)c3=O)ccc21` [I-4, 1-(3,4-difluorobenzyl)-N-[(2E)-3-{(3Z)-3-[(5-methyl-1H-imidazol-4-yl)methylidene]-2-oxo-2,3-dihydro-1H-indol-6-yl]prop-2-en-1-yl}-6-oxo-1,6-dihydropyrimidine-5-carboxamide], `O=C1Nc2cc(/C=C/CNC(=O)c3cc(Cl)nn(Cc4ccc(F)c(F)c4)c3=O)ccc2/C1=C/c1cnc[nH]1` [I-33, 6-chloro-2-(3,4-difluorobenzyl)-N-{(2E)-3-[(3Z)-3-(1H-imidazol-5-ylmethylidene)-2-oxo-2,3-dihydro-1H-indol-6-yl]prop-2-en-1-yl}-3-oxo-2,3-dihydropyridazine-4-carboxamide] is lower in remaining activity at 10 µM: 16.4% for the first, 12% for the second.

First: O=C1Nc2cc(/C=C/CNC(=O)c3ccnn(Cc4ccc(F)c(F)c4)c3=O)ccc2/C1=C/c1cnc[nH]1 [I-6, 2-(3,4-difluorobenzyl)-N-{(2E)-3-[(3Z)-3-(1H-imidazol-5-ylmethylidene)-2-oxo-2,3-dihydro-1H-indol-6-yl]prop-2-en-1-yl}-3-oxo-2,3-dihydropyridazine-4-carboxamide]
Second: Cc1c(C(=O)NC/C=C/c2ccc3c(c2)NC(=O)/C3=C\c2cnc[nH]2)c(=O)n(Cc2ccc(F)c(F)c2)n1C [I-17, 2-(3,4-difluorobenzyl)-N-{(2E)-3-[(3Z)-3-(1H-imidazol-5-ylmethylidene)-2-oxo-2,3-dihydro-1H-indol-6-yl]prop-2-en-1-yl}-1,5-dimethyl-3-oxo-2,3-dihydro-1H-pyrazole-4-carboxamide]
The remaining activity at 10 µM of the first is higher: 17.5% for the first, 14.3% for the second.

Compared with `O=C1Nc2cc(/C=C/CNC(=O)C3CCCN(Cc4ccc(F)c(F)c4)C3=O)ccc2/C1=C/c1cnc[nH]1` (stereo not drawn) [I-9, 1-(3,4-difluorobenzyl)-N-{(2E)-3-[(3Z)-3-(1H-imidazol-5-ylmethylidene)-2-oxo-2,3-dihydro-1H-indol-6-yl]prop-2-en-1-yl}-2-oxopiperidine-3-carboxamide], `O=C1Nc2cc(/C=C/CNC(=O)C3CCN(Cc4ccc(F)c(F)c4)C3=O)ccc2/C1=C/c1cnc[nH]1` (stereo not drawn) [I-11, 1-(3,4-difluorobenzyl)-N-{(2E)-3-[(3Z)-3-(1H-imidazol-5-ylmethylidene)-2-oxo-2,3-dihydro-1H-indol-6-yl]prop-2-en-1-yl}-2-oxopyrrolidine-3-carboxamide] is lower in remaining activity at 10 µM: 25.7% for the first, 21.7% for the second.

Compared with `O=C1Nc2cc(/C=C/CNC(=O)C3CCCN(Cc4ccc(F)c(F)c4)C3=O)ccc2/C1=C/c1ccc[nH]1` (stereo not drawn) [I-10, 1-(3,4-difluorobenzyl)-2-oxo-N-{(2E)-3-[(3Z)-2-oxo-3-(1H-pyrrol-2-ylmethylidene)-2,3-dihydro-1H-indol-6-yl]prop-2-en-1-yl}piperidine-3-carboxamide], `O=C1Nc2cc(/C=C/CNC(=O)c3cccc(Nc4ccc(F)c(F)c4)n3)ccc2/C1=C/c1ccc[nH]1` [I-19, 6-[(3,4-difluorophenyl)amino]-N-{(2E)-3-[(3Z)-2-oxo-3-(1H-pyrrol-2-ylmethylidene)-2,3-dihydro-1H-indol-6-yl]prop-2-en-1-yl}pyridine-2-carboxamide] is higher in remaining activity at 10 µM: 36.1% for the first, 36.9% for the second.

Molecule `O=C1Nc2cc(/C=C/CNC(=O)c3cccc(Nc4ccc(F)c(F)c4)n3)ccc2/C1=C/c1cnc[nH]1` [I-20, 6-[(3,4-difluorophenyl)amino]-N-{(2E)-3-[(3Z)-3-(1H-imidazol-5-ylmethylidene)-2-oxo-2,3-dihydro-1H-indol-6-yl]prop-2-en-1-yl}pyridine-2-carboxamide] has a remaining activity at 10 µM of 42.7%.

From US20110313156A1 (BOEHRINGER INGELHEIM INTERNATIONAL GMBH, priority 2008, published 2011)
